Reference: PubChem BioAssay AID1745844 (Carcinogenic Potency Database (CPDB), 2022)
Active and inactive are the calls of the source. The rule behind the calls is not given here.

Tested on: rodent lifetime carcinogenesis bioassay, tumor incidence TD50
Test: chronic cancer bioassays in animals – CPDB, compiled studies (AID 1745844)

CCCCCCCCCCCCN=C(N)N
carcinogen call (mouse, strain B6AKF1, females, oral dosing, site: any site (literature study), lesion: several types, types named in the paper, dosed 76 weeks, study length 76 weeks): negative (inactive) | carcinogen call (mouse, strain B6AKF1, females, oral dosing, site: liver, lesion: hepatoma, dosed 76 weeks, study length 76 weeks): negative (inactive) | carcinogen call (mouse, strain B6AKF1, females, oral dosing, site: lung, lesion: adenoma, dosed 76 weeks, study length 76 weeks): negative (inactive) | TD50 (mouse, strain B6AKF1, males, oral dosing, site: any site (literature study), lesion: several types, types named in the paper, dosed 76 weeks, study length 76 weeks): 149 mg/kg/day (inactive) | carcinogen call (mouse, strain B6AKF1, males, oral dosing, site: liver, lesion: hepatoma, dosed 76 weeks, study length 76 weeks): negative (inactive) | TD50 (mouse, strain B6AKF1, males, oral dosing, site: lung, lesion: several types, types named in the paper, dosed 76 weeks, study length 76 weeks): 41.9 mg/kg/day (inactive) | TD50 (mouse, strain B6C3F1, females, oral dosing, site: any site (literature study), lesion: several types, types named in the paper, dosed 76 weeks, study length 76 weeks): 54.7 mg/kg/day (inactive) | TD50 (mouse, strain B6C3F1, females, oral dosing, site: liver, lesion: hepatoma, dosed 76 weeks, study length 76 weeks): 54.7 mg/kg/day (inactive) | carcinogen call (mouse, strain B6C3F1, females, oral dosing, site: lung, lesion: several types, types named in the paper, dosed 76 weeks, study length 76 weeks): negative (inactive) | TD50 (mouse, strain B6C3F1, males, oral dosing, site: any site (literature study), lesion: several types, types named in the paper, dosed 76 weeks, study length 76 weeks): 10.8 mg/kg/day (inactive) | TD50 (mouse, strain B6C3F1, males, oral dosing, site: liver, lesion: hepatoma, dosed 76 weeks, study length 76 weeks): 19.4 mg/kg/day (inactive) | TD50 (mouse, strain B6C3F1, males, oral dosing, site: lung, lesion: adenoma, dosed 76 weeks, study length 76 weeks): 30.1 mg/kg/day (inactive)

N#[N+]c1cc(CCN)ccc1[O-]
TD50 (rat, strain F344/DuCrj, males, in drinking water, site: oral cavity, lesion: squamous-cell carcinoma, dosed 116 weeks, study length 116 weeks): 37.6 mg/kg/day

C=CCN(CCO)N=O
TD50 (rat, strain Fischer 344, females, in drinking water, site: liver, lesion: hepatocellular carcinoma, dosed 50 weeks, study length 65 weeks): 4.12 mg/kg/day | TD50 (rat, strain Fischer 344, females, in drinking water, site: nasal cavity, lesion: several types, types named in the paper, dosed 50 weeks, study length 65 weeks): 0.491 mg/kg/day

C[C@H]([C@H](O)CCC(C)(C)O)[C@H]1CC[C@@]2(O)C3=CC(=O)[C@@H]4C[C@@H](O)[C@@H](O)C[C@]4(C)[C@H]3CC[C@]12C
TD50 (mouse, strain Swiss albino, females, by gavage, site: any site (literature study), lesion: malignant tumor, dosed 95 weeks, study length 95 weeks): 0.0264 mg/kg/day | TD50 (mouse, strain Swiss albino, females, by gavage, site: mammary gland, lesion: adenocarcinoma, dosed 95 weeks, study length 95 weeks): 0.0264 mg/kg/day | TD50 (mouse, strain Swiss albino, males, by gavage, site: any site (literature study), lesion: malignant tumor, dosed 95 weeks, study length 95 weeks): 0.0558 mg/kg/day | TD50 (mouse, strain Swiss albino, males, by gavage, site: lung, lesion: adenocarcinoma, dosed 95 weeks, study length 95 weeks): 0.0558 mg/kg/day

ClCOCC(COCCl)OCCl
TD50 (mouse, strain Ha/ICR, females, i.p., site: abdomen, lesion: sarcoma, dosed 76 weeks, study length 76 weeks): 3.44 mg/kg/day

CCCCC1(COC(=O)CCC(=O)O)C(=O)N(c2ccccc2)N(c2ccccc2)C1=O
carcinogen call (rat, strain F344/DuCrj, females, in feed, site: liver, lesion: one or several types, types not named, dosed 104 weeks, study length 104 weeks): negative (inactive) | TD50 (rat, strain F344/DuCrj, males, in feed, site: adrenal gland, lesion: pheochromocytoma, dosed 104 weeks, study length 104 weeks): 471 mg/kg/day (inactive) | carcinogen call (rat, strain F344/DuCrj, males, in feed, site: liver, lesion: hepatocellular adenoma, dosed 104 weeks, study length 104 weeks): negative (inactive) | carcinogen call (rat, strain F344/DuCrj, males, in feed, site: liver, lesion: hepatocellular carcinoma, dosed 104 weeks, study length 104 weeks): negative (inactive)

CCOC(=O)C1OC1(C)c1ccccc1 (configuration not stated)
TD50 (rat, strain Wistar, females, in feed, site: any site (literature study), lesion: benign tumor, dosed 104 weeks, study length 104 weeks): 253 mg/kg/day (inactive) | TD50 (rat, strain Wistar, females, in feed, site: any site (literature study), lesion: malignant tumor, dosed 104 weeks, study length 104 weeks): 2230 mg/kg/day (inactive) | TD50 (rat, strain Wistar, females, in feed, site: liver, lesion: hemangioendothelioma, dosed 104 weeks, study length 104 weeks): 9360 mg/kg/day (inactive) | TD50 (rat, strain Wistar, females, in feed, site: pituitary gland, lesion: adenoma, dosed 104 weeks, study length 104 weeks): 331 mg/kg/day (inactive) | TD50 (rat, strain Wistar, males, in feed, site: any site (literature study), lesion: benign tumor, dosed 104 weeks, study length 104 weeks): 1150 mg/kg/day (inactive) | TD50 (rat, strain Wistar, males, in feed, site: any site (literature study), lesion: malignant tumor, dosed 104 weeks, study length 104 weeks): 4110 mg/kg/day (inactive) | carcinogen call (rat, strain Wistar, males, in feed, site: liver, lesion: one or several types, types not named, dosed 104 weeks, study length 104 weeks): negative (inactive) | TD50 (rat, strain Wistar, males, in feed, site: testis, lesion: interstitial-cell tumor, dosed 104 weeks, study length 104 weeks): 1150 mg/kg/day (inactive)

C=Cc1cccc(C)c1
carcinogen call (mouse, strain B6C3F1, females, inhaled, site: any site (literature study), lesion: several types, types named in the paper, dosed 103 weeks, study length 104 weeks): negative (inactive) | TD50 (mouse, strain B6C3F1, females, inhaled, site: lung, lesion: alveolar/bronchiolar adenoma + alveolar/bronchiolar carcinoma, dosed 103 weeks, study length 104 weeks): 750 mg/kg/day | carcinogen call (mouse, strain B6C3F1, males, inhaled, site: any site (literature study), lesion: several types, types named in the paper, dosed 103 weeks, study length 104 weeks): negative (inactive) | TD50 (rat, strain Fischer 344, females, inhaled, site: any site (literature study), lesion: several types, types named in the paper, dosed 103 weeks, study length 104 weeks): 312 mg/kg/day (inactive) | carcinogen call (rat, strain Fischer 344, males, inhaled, site: any site (literature study), lesion: several types, types named in the paper, dosed 103 weeks, study length 104 weeks): negative (inactive)

C1C2OC2C2C1C1CC2C2OC12 (configuration not stated)
TD50 (mouse, strain CD-1 HaM/ICR, females, in feed, site: any site (literature study), lesion: several types, types named in the paper, dosed 64 weeks, study length 86 weeks): 789 mg/kg/day (inactive) | carcinogen call (mouse, strain CD-1 HaM/ICR, females, in feed, site: liver, lesion: several types, types named in the paper, dosed 64 weeks, study length 86 weeks): negative (inactive) | TD50 (mouse, strain CD-1 HaM/ICR, females, in feed, site: lung, lesion: several types, types named in the paper, dosed 64 weeks, study length 86 weeks): 1660 mg/kg/day (inactive) | TD50 (mouse, strain CD-1 HaM/ICR, males, in feed, site: any site (literature study), lesion: several types, types named in the paper, dosed 77 weeks, study length 86 weeks): 149 mg/kg/day (inactive) | TD50 (mouse, strain CD-1 HaM/ICR, males, in feed, site: liver, lesion: several types, types named in the paper, dosed 77 weeks, study length 86 weeks): 930 mg/kg/day (inactive) | TD50 (mouse, strain CD-1 HaM/ICR, males, in feed, site: lung, lesion: several types, types named in the paper, dosed 77 weeks, study length 86 weeks): 373 mg/kg/day (inactive) | TD50 (rat, strain Charles River CD (Sprague-Dawley), males, in feed, site: any site (literature study), lesion: several types, types named in the paper, dosed 77 weeks, study length 107 weeks): 176 mg/kg/day (inactive) | TD50 (rat, strain Charles River CD (Sprague-Dawley), males, in feed, site: liver, lesion: several types, types named in the paper, dosed 77 weeks, study length 107 weeks): 3910 mg/kg/day (inactive)

CCCN(N)C=O
TD50 (mouse, strain Swiss albino, females, in drinking water, site: gall bladder, lesion: adenoma, dosed 75 weeks, study length 79 weeks): 497 mg/kg/day | TD50 (mouse, strain Swiss albino, females, in drinking water, site: gall bladder, lesion: several types, types named in the paper, dosed 75 weeks, study length 79 weeks): 444 mg/kg/day | TD50 (mouse, strain Swiss albino, females, in drinking water, site: liver, lesion: several types, types named in the paper, dosed 75 weeks, study length 79 weeks): 215 mg/kg/day | TD50 (mouse, strain Swiss albino, females, in drinking water, site: lung, lesion: several types, types named in the paper, dosed 75 weeks, study length 79 weeks): 8.74 mg/kg/day | TD50 (mouse, strain Swiss albino, males, in drinking water, site: lung, lesion: several types, types named in the paper, dosed 51 weeks, study length 61 weeks): 8.84 mg/kg/day | TD50 (mouse, strain Swiss albino, males, in drinking water, site: preputial gland, lesion: several types, types named in the paper, dosed 51 weeks, study length 61 weeks): 60.4 mg/kg/day | TD50 (mouse, strain Swiss albino, males, in drinking water, site: preputial gland, lesion: squamous-cell carcinoma, dosed 51 weeks, study length 61 weeks): 75.7 mg/kg/day

O=C1C2(Cl)C3(Cl)C4(Cl)C(Cl)(Cl)C5(Cl)C3(Cl)C1(Cl)C5(Cl)C24Cl (configuration not stated)
TD50 (mouse, strain B6C3F1, females, in feed, site: any site (literature study), lesion: several types, types named in the paper, dosed 80 weeks, study length 90 weeks): 1.57 mg/kg/day | TD50 (mouse, strain B6C3F1, females, in feed, site: liver, lesion: hepatocellular adenoma + hepatocellular carcinoma + neoplastic nodule, dosed 80 weeks, study length 90 weeks): 1.62 mg/kg/day | TD50 (mouse, strain B6C3F1, females, in feed, site: liver, lesion: hepatocellular carcinoma, dosed 80 weeks, study length 90 weeks): 1.62 mg/kg/day | TD50 (mouse, strain B6C3F1, males, in feed, site: any site (literature study), lesion: several types, types named in the paper, dosed 80 weeks, study length 89 weeks): 0.705 mg/kg/day | TD50 (mouse, strain B6C3F1, males, in feed, site: liver, lesion: hepatocellular adenoma + hepatocellular carcinoma + neoplastic nodule, dosed 80 weeks, study length 89 weeks): 0.705 mg/kg/day | TD50 (mouse, strain B6C3F1, males, in feed, site: liver, lesion: hepatocellular carcinoma, dosed 80 weeks, study length 89 weeks): 0.705 mg/kg/day | TD50 (mouse, strain B6C3F1, males, in feed, site: lung, lesion: alveolar/bronchiolar adenoma + alveolar/bronchiolar carcinoma, dosed 80 weeks, study length 89 weeks): 29.3 mg/kg/day | TD50 (rat, strain Osborne-Mendel, females, in feed, site: any site (literature study), lesion: several types, types named in the paper, dosed 80 weeks, study length 109 weeks): 1.83 mg/kg/day | TD50 (rat, strain Osborne-Mendel, females, in feed, site: liver, lesion: hepatocellular adenoma + hepatocellular carcinoma + neoplastic nodule, dosed 80 weeks, study length 109 weeks): 2.96 mg/kg/day | TD50 (rat, strain Osborne-Mendel, males, in feed, site: any site (literature study), lesion: several types, types named in the paper, dosed 80 weeks, study length 109 weeks): 1.42 mg/kg/day (inactive) | TD50 (rat, strain Osborne-Mendel, males, in feed, site: liver, lesion: hepatocellular adenoma + hepatocellular carcinoma + neoplastic nodule, dosed 80 weeks, study length 109 weeks): 2.49 mg/kg/day | TD50 (rat, strain Sprague-Dawley, males, in feed, site: liver, lesion: neoplastic nodule, dosed 91 weeks, study length 91 weeks): 0.199 mg/kg/day

O=[N+]([O-])c1ccc(Cl)c([N+](=O)[O-])c1
TD50 (mouse, strain CD-1 HaM/ICR, females, in feed, site: any site (literature study), lesion: several types, types named in the paper, dosed 77 weeks, study length 94 weeks): 124 mg/kg/day (inactive) | TD50 (mouse, strain CD-1 HaM/ICR, females, in feed, site: liver, lesion: several types, types named in the paper, dosed 77 weeks, study length 94 weeks): 1520 mg/kg/day (inactive) | TD50 (mouse, strain CD-1 HaM/ICR, females, in feed, site: lung, lesion: several types, types named in the paper, dosed 77 weeks, study length 94 weeks): 150 mg/kg/day (inactive) | TD50 (mouse, strain CD-1 HaM/ICR, males, in feed, site: any site (literature study), lesion: several types, types named in the paper, dosed 77 weeks, study length 94 weeks): 255 mg/kg/day (inactive) | TD50 (mouse, strain CD-1 HaM/ICR, males, in feed, site: liver, lesion: several types, types named in the paper, dosed 77 weeks, study length 94 weeks): 365 mg/kg/day (inactive) | TD50 (mouse, strain CD-1 HaM/ICR, males, in feed, site: lung, lesion: several types, types named in the paper, dosed 77 weeks, study length 94 weeks): 541 mg/kg/day (inactive) | TD50 (rat, strain Charles River CD (Sprague-Dawley), males, in feed, site: any site (literature study), lesion: several types, types named in the paper, dosed 77 weeks, study length 103 weeks): 12.3 mg/kg/day (inactive) | carcinogen call (rat, strain Charles River CD (Sprague-Dawley), males, in feed, site: liver, lesion: several types, types named in the paper, dosed 77 weeks, study length 103 weeks): negative (inactive)
